Laboratory results as given in EP2298778A1, “IMIDAZOTHIAZOLE DERIVATIVE HAVING 4,7-DIAZASPIROÝ2.5¨OCTANE RING STRUCTURE” (Daiichi Sankyo Company, Limited, priority 2008, dated 2009).

Assay: Metabolic stability test (microsomal metabolism test)
Format: in vitro ADME
Details: pH 7.4; human-derived liver microsomes, test compound remaining after addition of NADP+ and incubation at 37°C for 30 minutes; read-out: metabolic stability of T/C%
Procedure: (Test Example 3 Metabolic stability test) 100 µL of 100 mM phosphate buffer solution (pH 7.4) containing 3 µM test compound was added to 100 µL of reaction solution containing 100 mM phosphate buffer solution (pH 7.4), 30 mM glucose 6-phosphate, 10 mM MgCl2·6H2O, 3 units/mL glucose 6-phosphate 1-dehydrogenase, and 0.3 to 1.5 mgP/mL human liver microsomes and the mixture was incubated at 37°C for 20 minutes. Then, 70 µL of 100 mM phosphate buffer solution (pH 7.4) containing 3 mM NADP^+ was added and the mixture was incubated at 37°C for 30 minutes to conduct a microsomal metabolism test. The metabolic stability was calculated according to the following formula: T/C (%) = ((concentration of test compound after addition of NADP)^+and incubation for30minutes)/((concentration of test compound before addition of NADP)^+) × 100. [formula] […]

SMILES	remaining at 0.5 h
CC(C)C1=C(C(=O)N2[C@H](C)CC[C@H]2C(=O)N2CCNC3(CC3)C2)SC2=N[C@@](C)(c3ccc(Cl)nc3)[C@@H](c3ccc(Cl)c(F)c3)N21 [Example 11, 7-[(5R)-1-{[(5R,6S)-5-(4-chloro-3-fluorophenyl)-6-(6-chloropyridin-3-yl)-3-isopropyl-6-methyl-5,6-dihydroimidazo[2,1-b] [1,3]thiazol-2-yl]carbonyl}-5-methyl-L-prolyl]-4,7-diazaspiro[2.5]octane]	≥ 50%
CC(C)C1=C(C(=O)N2[C@H](C)CC[C@H]2C(=O)N2CCN(CCO)C3(CC3)C2)SC2=N[C@@](C)(c3ccc(Cl)cc3)[C@@H](c3ccc(Cl)cc3)N21 [Example 3, 2-{7-[(5R)-1-{[(5R,6S)-5,6-bis(4-chlorophenyl)-3-isopropyl-6-methyl-5,6-dihydroimidazo[2,1-b][1,3]thiazol-2-yl]carbonyl}-5-methyl-L-prolyl]-4,7-diazaspiro[2.5]oct-4-yl}ethanol]	≥ 50%
CC(C)C1=C(C(=O)N2[C@H](C)CC[C@H]2C(=O)N2CCNC3(CC3)C2)SC2=N[C@@](C)(c3ccc(Cl)nc3)[C@@H](c3ccc(Cl)c(O)c3)N21 [Example 71, 2-chloro-5-[(5R,6S)-6-(6-chloropyridin-3-yl)-2-{[(2S,5R)-2-(4,7-diazaspiro[2.5]oct-7-ylcarbonyl)-5-methylpyrrolidin-1-yl]carbonyl}-3-isopropyl-6-methyl-5,6-dihydroimidazo[2,1-b][1,3]thiazol-5-yl]phenol]	≥ 50%
CC[C@@H]1CNC2(CC2)CN1C(=O)[C@@H]1CCCN1C(=O)C1=C(C(C)C)N2C(=N[C@@](C)(c3ccc(Cl)nc3)[C@H]2c2ccc(Cl)c(F)c2)S1 [Example 62, (6R)-7-(1-{[(5R,6S)-5-(4-chloro-3-fluorophenyl)-6-(6-chloropyridin-3-yl)-3-isopropyl-6-methyl-5,6-dihydroimidazo[2,1-b][1,3]thiazol-2-yl]carbonyl}-L-prolyl)-6-ethyl-4,7-diazaspiro[2.5]octane]	≥ 50%
CC(C)C1=C(C(=O)N2[C@H](C)CC[C@H]2C(=O)N2CCNC3(CC3)C2)SC2=N[C@@](C)(c3ccc(Cl)c(N)c3)[C@@H](c3ccc(Cl)c(F)c3)N21 [Example 27, 2-chloro-5-[(5R,6S)-5-(4-chloro-3-fluorophenyl)-2-{[(2S,5R)-2-(4,7-diazaspiro[2.5]oct-7-ylcarbonyl)-5-methylpyrrolidin-1-yl]carbonyl}-3-isopropyl-6-methyl-5,6-dihydroimidazo[2,1-b][1,3]thiazol-6-yl]aniline]	≥ 50%
CC(C)C1=C(C(=O)N2[C@H](CF)CC[C@H]2C(=O)N2CCNC3(CC3)C2)SC2=N[C@@](C)(c3ccc(Cl)cc3)[C@@H](c3ccc(Cl)cc3)N21 [Example 38, 7-[(5S)-1-{[(5R,6S)-5,6-bis(4-chlorophenyl)-3-isopropyl-6-methyl-5,6-dihydroimidazo[2,1-b][1,3]thiazol-2-yl]carbonyl}-5-(fluoromethyl)-L-prolyl]-4,7-diazaspiro[2.5]octane]	≥ 50%
CC(C)C1=C(C(=O)N2C(=O)CC[C@H]2C(=O)N2CCNC3(CC3)C2)SC2=N[C@@](C)(c3ccc(Cl)cc3)[C@@H](c3ccc(Cl)cc3)N21 [Example 42, (5S)-1-{[(5R,6S)-5,6-bis(4-chlorophenyl)-3-isopropyl-6-methyl-5,6-dihydroimidazo[2,1-b][1,3]thiazol-2-yl]carbonyl}-5-(4,7-diazaspiro[2.5]oct-7-ylcarbonyl)pyrrolidin-2-one]	≥ 50%
CC(C)C1=C(C(=O)N2[C@@H](C)CC[C@H]2C(=O)N2CC3(CC3)NC[C@@H]2C)SC2=N[C@@](C)(c3ccc(Cl)nc3)[C@@H](c3ccc(Cl)c(F)c3)N21 [Example 65, (6S)-7-[(5S)-1-{[(5R,6S)-5-(4-chloro-3-fluorophenyl)-6-(6-chloropyridin-3-yl)-3-isopropyl-6-methyl-5,6-dihydroimidazo[2,1-b][1,3]thiazol-2-yl]carbonyl}-5-methyl-L-prolyl]-6-methyl-4,7-diazaspiro[2.5]octane]	≥ 50%
